Test results reported in patent publication US20110166123A1, “NOVEL COMPOSITIONS AND METHODS OF USE” (priority 2008, published 2011).

Test system: human immunodeficiency virus type 1 (HIV-1)
Assay: microbe, parasite or virus in culture
Format: cell-based
Details: Human immunodeficiency virus 1, HeLa, 48 h, HIV-1 luciferase reporter, HeLa cells, 48 hours after infection

SMILES	EC50 [nM]
COc1nc2c(cc1Nc1ccc(F)cc1)c(=O)c(C(=O)O)cn2[C@H](CO)C(C)C [Example 20QQ, (S)-6-(4-fluorophenylamino)-1-(1-hydroxy-3-methylbutan-2-yl)-7-methoxy-4-oxo-1,4-dihydro-1,8-naphthyridine-3-carboxylic acid]	> 100
COc1nc2c(cc1NCc1ccc(F)cc1F)c(=O)c(C(=O)O)cn2[C@H](CO)C(C)C [Example 20R, (S)-6-(2,4-difluorobenzylamino)-1-(1-hydroxy-3-methylbutan-2-yl)-7-methoxy-4-oxo-1,4-dihydro-1,8-naphthyridine-3-carboxylic acid]	10 to 100
COc1nc2c(cc1Nc1ccc(F)c(Cl)c1)c(=O)c(C(=O)O)cn2[C@H](CO)C(C)C [Example 20RR, (S)-6-(3-chloro-4-fluorophenylamino)-1-(1-hydroxy-3-methylbutan-2-yl)-7-methoxy-4-oxo-1,4-dihydro-1,8-naphthyridine-3-carboxylic acid]	> 100
COc1nc2c(cc1NCCc1ccccc1F)c(=O)c(C(=O)O)cn2[C@H](CO)C(C)C [Example 20S, (S)-6-(2-fluorophenethylamino)-1-(1-hydroxy-3-methylbutan-2-yl)-7-methoxy-4-oxo-1,4-dihydro-1,8-naphthyridine-3-carboxylic acid]	> 100
COc1nc2c(cc1NCCc1ccc(F)cc1)c(=O)c(C(=O)O)cn2[C@H](CO)C(C)C [Example 20T, (S)-6-(4-fluorophenethylamino)-1-(1-hydroxy-3-methylbutan-2-yl)-7-methoxy-4-oxo-1,4-dihydro-1,8-naphthyridine-3-carboxylic acid]	> 100
COc1nc2c(cc1N(C)Cc1ccccc1F)c(=O)c(C(=O)O)cn2[C@H](CO)C(C)C [Example 20U, (S)-6-((2-fluorobenzyl)(methyl)amino)-1-(1-hydroxy-3-methylbutan-2-yl)-7-methoxy-4-oxo-1,4-dihydro-1,8-naphthyridine-3-carboxylic acid]	> 100
COc1nc2c(cc1N(C)Cc1ccc(F)cc1)c(=O)c(C(=O)O)cn2[C@H](CO)C(C)C [Example 20V, (S)-6-((4-fluorobenzyl)(methyl)amino)-1-(1-hydroxy-3-methylbutan-2-yl)-7-methoxy-4-oxo-1,4-dihydro-1,8-naphthyridine-3-carboxylic acid]	> 100
COc1nc2c(cc1NCc1ccccc1C(F)(F)F)c(=O)c(C(=O)O)cn2[C@H](CO)C(C)C [Example 20W, (S)-1-(1-hydroxy-3-methylbutan-2-yl)-7-methoxy-4-oxo-6-(2-(trifluoromethyl)benzylamino)-1,4-dihydro-1,8-naphthyridine-3-carboxylic acid]	> 100
COc1nc2c(cc1NCc1cccc(C(F)(F)F)c1)c(=O)c(C(=O)O)cn2[C@H](CO)C(C)C [Example 20X, (S)-1-(1-hydroxy-3-methylbutan-2-yl)-7-methoxy-4-oxo-6-(3-(trifluoromethyl)benzylamino)-1,4-dihydro-1,8-naphthyridine-3-carboxylic acid]	> 100
COc1nc2c(cc1NCc1ccc(C(F)(F)F)cc1)c(=O)c(C(=O)O)cn2[C@H](CO)C(C)C [Example 20Y, (S)-1-(1-hydroxy-3-methylbutan-2-yl)-7-methoxy-4-oxo-6-(4-(trifluoromethyl)benzylamino)-1,4-dihydro-1,8-naphthyridine-3-carboxylic acid]	> 100
COc1nc2c(cc1NCc1c(F)cccc1F)c(=O)c(C(=O)O)cn2[C@H](CO)C(C)C [Example 20Z, (S)-6-(2,6-difluorobenzylamino)-1-(1-hydroxy-3-methylbutan-2-yl)-7-methoxy-4-oxo-1,4-dihydro-1,8-naphthyridine-3-carboxylic acid]	10 to 100
COc1cc2c(cc1NCc1ccc(F)cc1)c(=O)c(C(=O)O)cn2[C@H](CO)C(C)C [Example 21A, (S)-6-(4-Fluorobenzylamino)-1-(1-hydroxy-3-methylbutan-2-yl)-7-methoxy-4-oxo-1,4-dihydroquinoline-3-carboxylic acid]	< 10
COc1cc2c(cc1NCc1c(F)cc(F)cc1F)c(=O)c(C(=O)O)cn2[C@H](CO)C(C)C [Example 21B, (S)-1-(1-hydroxy-3-methylbutan-2-yl)-7-methoxy-4-oxo-6-(2,4,6-trifluorobenzylamino)-1,4-dihydroquinoline-3-carboxylic acid]	< 10
COc1cc2c(cc1NCc1c(F)cccc1F)c(=O)c(C(=O)O)cn2[C@H](CO)C(C)C [Example 21C, (S)-6-(2,6-difluorobenzylamino)-1-(1-hydroxy-3-methylbutan-2-yl)-7-methoxy-4-oxo-1,4-dihydroquinoline-3-carboxylic acid]	10 to 100
COc1cc2c(cc1NCc1ccc(F)cc1F)c(=O)c(C(=O)O)cn2[C@H](CO)C(C)C [Example 21D, (S)-6-(2,4-difluorobenzylamino)-1-(1-hydroxy-3-methylbutan-2-yl)-7-methxoy-4-oxo-1,4-dihydroquinoline-carboxylic acid]	10 to 100
CC(C)[C@@H](CO)n1cc(C(=O)O)c(=O)c2cc(NCc3ccc(F)cc3)ccc21 [Example 22A, (S)-6-(4-fluorobenzylamino)-1-(1-hydroxy-3-methylbutan-2-yl)-4-oxo-1,4-dihydroquinoline-3-carboxylic acid]	> 100

SMILES	EC50 [nM]
CC(C)(C)[C@@H](CO)n1cc(C(=O)O)c(=O)c2cc(NCc3ccc(F)cc3)ccc21 [Example 22B, (S)-6-(4-fluorobenzylamino)-1-(1-hydroxy-3,3-dimethylbutan-2-yl)-4-oxo-1,4-dihydroquinoline-3-carboxylic acid]	10 to 100
CC(C)[C@@H](CO)n1cc(C(=O)O)c(=O)c2cc(NCc3c(F)cc(F)cc3F)ccc21 [Example 22C, (S)-1-(1-hydroxy-3-methylbutan-2-yl)-4-oxo-6-(2,4,6-trifluorobenzylamino)-1,4-dihydroquinoline-3-carboxylic acid]	10 to 100
CC(C)[C@@H](CO)n1cc(C(=O)O)c(=O)c2cc(OCc3ccc(F)cc3)ccc21 [Example 23A, (S)-6-(4-fluorobenzyloxy)-1-(1-hydroxy-3-methylbutan-2-yl)-4-oxo-1,4-dihydroquinoline-3-carboxylic acid]	> 100
CC(C)(C)[C@@H](CO)n1cc(C(=O)O)c(=O)c2cc(OCc3ccc(F)cc3F)ccc21 [Example 23B, (S)-6-(2,4-difluorobenzyloxy)-1-(1-hydroxy-3,3-dimethylbutan-2-yl)-4-oxo-1,4-dihydroquinoline-3-carboxylic acid]	> 100
CC(C)(C)[C@@H](CO)n1cc(C(=O)O)c(=O)c2cc(OCc3c(F)cc(F)cc3F)ccc21 [Example 23C, (S)-1-(1-hydroxy-3,3-dimethylbutan-2-yl)-4-oxo-6-(2,4,6-trifluorobenzyloxy)-1,4-dihydroquinoline-3-carboxylic acid]	10 to 100
CC(C)[C@@H](CO)n1cc(C(=O)O)c(=O)c2cc(NCc3ccc(F)cc3)c(N3CCOCC3)nc21 [Example 24A, (S)-6-(4-fluorobenzylamino)-1-(1-hydroxy-3-methylbutan-2-yl)-7-morpholino-4-oxo-1,4-dihydro-1,8-naphthyridine-3-carboxylic acid]	> 100
Cc1cc2c(cc1NCc1ccc(F)cc1)c(=O)c(C(=O)O)cn2[C@H](CO)C(C)(C)C [Example 25C, (S)-6-(4-fluorobenzylamino)-1-(1-hydroxy-3,3-dimethylbutan-2-yl)-7-methyl-4-oxo-1,4-dihydroquinoline-3-carboxylic acid]	10 to 100
Cc1cc2c(cc1NCc1c(F)cc(F)cc1F)c(=O)c(C(=O)O)cn2[C@H](CO)C(C)(C)C [Example 25D, (S)-1-(1-hydroxy-3,3-dimethylbutan-2-yl)-7-methyl-4-oxo-6-(2,4,6-trifluorobenzylamino)-1,4-dihydroquinoline-3-carboxylic acid]	< 10
CC(C)(C)[C@@H](CO)n1cc(C(=O)O)c(=O)c2cc(NCc3ccc(F)cc3)c(F)cc21 [Example 26A, (S)-7-fluoro-6-(4-fluorobenzylamino)-1-(1-hydroxy-3,3-dimethylbutan-2-yl)-4-oxo-1,4-dihydroquinoline-3-carboxylic acid]	10 to 100
CC(C)(C)[C@@H](CO)n1cc(C(=O)O)c(=O)c2cc(NCc3c(F)cc(F)cc3F)c(Cl)cc21 [Example 26D, (S)-7-chloro-1-(1-hydroxy-3,3-dimethylbutan-2-yl)-4-oxo-6-(2,4,6-trifluorobenzylamino)-1,4-dihydroquinoline-3-carboxylic acid]	10 to 100
CC(C)(C)[C@@H](CO)n1cc(C(=O)O)c(=O)c2cc(NCc3ccc(F)cc3)c(Cl)cc21 [Example 26E, (S)-7-chloro-6-(4-fluorobenzylamino)-1-(1-hydroxy-3,3-dimethylbutan-2-yl)-4-oxo-1,4-dihydroquinoline-3-carboxylic acid]	> 100
CCOc1nc2c(cc1NCc1ccc(F)cc1)c(=O)c(C(=O)O)cn2[C@H](CO)C(C)C [Example 27A, (S)-7-Ethoxy-6-(4-fluorobenzylamino)-1-(1-hydroxy-3-methylbutan-2-yl)-4-oxo-1,4-dihydro-1,8-naphthyridine-3-carboxylic acid]	> 100
CCOc1nc2c(cc1NCc1c(F)cc(F)cc1F)c(=O)c(C(=O)O)cn2[C@H](CO)C(C)C [Example 27B, (S)-7-Ethoxy-1-(1-hydroxy-3-methylbutan-2-yl)-4-oxo-6-(2,4,6-trifluorobenzylamino)-1,4-dihydro-1,8-naphthyridine-3-carboxylic acid]	10 to 100
COCCOc1cc2c(cc1NCc1ccc(F)cc1)c(=O)c(C(=O)O)cn2[C@H](CO)C(C)(C)C [Example 27C, (S)-6-(4-fluorobenzylamino)-1-(1-hydroxy-3,3-dimethylbutan-2-yl)-7-(2-methoxyethoxy)-4-oxo-1,4-dihydroquinoline-3-carboxylic acid]	10 to 100
CC(C)(C)[C@@H](CO)n1cc(C(=O)O)c(=O)c2cc(NCc3c(F)cc(F)cc3F)c(N3CCOCC3)nc21 [Example 27E, (S)-1-(1-hydroxy-3,3-dimethylbutan-2-yl)-7-morpholino-4-oxo-6-(2,4,6-trifluorobenzylamino)-1,4-dihydro-1,8-naphthyridine-3-carboxylic acid]	10 to 100
